These are literature values, as cited in patent publication US20070154533A1, “Method of increasing testosterone and related steriod concentrations in women” (priority 2005, published 2007).

Like-named read-outs stand apart in the source and are kept apart here.

The conditions of data set [1]: patch delivering 150 ug/day, HIV-infected women, over 12 weeks.
The conditions of data set [2]: for Mean (±SD) serum free testosterone concentration: transdermal patch, 12 weeks, oophorectomized women on conjugated equine estrogens.
The conditions of data set [3]: circulating testosterone.
Data set [4] addresses T1, sex hormone binding globulin (Homo sapiens, UniProt P04278).
T1 sequence (P04278 30-402): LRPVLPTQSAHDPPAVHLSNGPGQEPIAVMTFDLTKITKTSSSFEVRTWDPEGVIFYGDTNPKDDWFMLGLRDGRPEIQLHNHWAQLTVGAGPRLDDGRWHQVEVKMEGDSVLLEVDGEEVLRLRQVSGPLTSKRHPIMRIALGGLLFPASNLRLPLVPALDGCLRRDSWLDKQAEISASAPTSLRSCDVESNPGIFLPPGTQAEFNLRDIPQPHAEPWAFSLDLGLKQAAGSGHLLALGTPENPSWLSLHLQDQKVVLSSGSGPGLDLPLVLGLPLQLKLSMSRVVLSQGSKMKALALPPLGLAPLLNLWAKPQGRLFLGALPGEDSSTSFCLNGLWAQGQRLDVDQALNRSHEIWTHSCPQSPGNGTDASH
The note with it: in women.

Data set [5] deals with albumin (Homo sapiens, UniProt P02768). The note with it: in women.
Chain of albumin (P02768 25-609): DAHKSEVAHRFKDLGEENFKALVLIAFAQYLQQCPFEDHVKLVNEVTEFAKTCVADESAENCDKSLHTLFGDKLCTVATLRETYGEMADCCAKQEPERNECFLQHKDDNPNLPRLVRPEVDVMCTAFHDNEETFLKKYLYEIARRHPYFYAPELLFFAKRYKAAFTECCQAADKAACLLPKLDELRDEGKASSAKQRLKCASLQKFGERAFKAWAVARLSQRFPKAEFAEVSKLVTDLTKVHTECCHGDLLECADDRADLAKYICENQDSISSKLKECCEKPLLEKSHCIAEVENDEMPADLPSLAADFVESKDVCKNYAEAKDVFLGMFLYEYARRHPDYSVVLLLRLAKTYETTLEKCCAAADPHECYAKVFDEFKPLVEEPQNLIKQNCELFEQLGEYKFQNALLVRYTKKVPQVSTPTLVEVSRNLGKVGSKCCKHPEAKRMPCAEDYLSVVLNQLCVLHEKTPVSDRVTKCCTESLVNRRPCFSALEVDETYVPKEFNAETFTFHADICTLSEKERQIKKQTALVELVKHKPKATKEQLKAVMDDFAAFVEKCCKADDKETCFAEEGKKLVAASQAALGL

On to `C[C@]12CC[C@H]3[C@@H](CCC4=CC(=O)CC[C@@]43C)[C@@H]1CC[C@@H]2O` [Testosterone, testosterone], for which, in data set [1], the “Increase in body weight” value is 4%. In addition, the “Scores on the telephone-based diary” value in data set [2] (higher dose) is “did not increase significantly”. Besides, in data set [2] (higher dose vs placebo), the “Psychological Well-Being Index positive-well-being, depressed-mood, and composite scores” value is “improved at the higher dose”. The “Percentages of women who had sexual fantasies, masturbated, or engaged in sexual intercourse at least once a week” value in data set [2] (higher dose, vs base line) is “increased two to three times from base line”. Moreover, in data set [2] (higher testosterone dose (300 μg per day), P=0.03 vs placebo), the “Brief Index of Sexual Functioning for Women scores” value was “further increases in scores for frequency of sexual activity and pleasure-orgasm”. For the same molecule, the “Mean (±SD) serum free testosterone concentration” value in data set [2] (160 μg of testosterone per day) is 3.9 ± 2.4 pg/mL; in data set [2] (300 μg of testosterone per day), 4.9 ± 4.8 pg/mL. Moreover, the “Bound to protein in the blood” value in data set [3] is 98%. Also, the “Binding to sex hormone binding globulin” value in data set [4] was “approximately 65%”. In addition, in data set [5], the “Bound weakly to albumin” value is reported as 33%.
